Results from the NIST ThermoML archive (doi:10.1021/acs.jced.8b01209).
Numbers after ± are expanded uncertainties.

Legend:
[1] = Crystal; DSC
[2] = Molar enthalpy of transition or fusion; settings: Crystal; DSC

Cc1ccc2cc(C)ccc2c1 [2,6-dimethylnaphthalene]
Triple point temperature [1]: 384.41 ± 1.2 K
Molar enthalpy of transition or fusion [2]: 5.95 ± 0.136 kcal/mol
